Results from the supplement of paper PMC12463676, “Small-molecule dissolution of stress granules by redox modulation benefits ALS models” (Nature Chemical Biology, 2025).

What was measured:
lipoamide = compound: NC(=O)CCCCC1CCSS1 [lipoamide]; test: thermal stability z-score vs DMSO; higher = more thermally stabilized by treatment; details: HeLa, lipoamide concentration 100 µM
Method: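 Cellular thermal proteome profiling in HeLa cells. Cells were treated with 100 µM lipoamide for 1 h, with or without 1 mM arsenate for a further 1 h, then heated to ten temperatures (37-66.3 °C), and soluble protein was quantified by TMT mass spectrometry relative to 0.1% DMSO controls. The thermal stability score (sum of log2 fold changes minus the abundance score) was transformed to a z-score; mean of n = 3 experiments.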

potassium arsenate = compound: O=[As]([O-])(O)O.[K+] [potassium arsenate]; test: as above; details: HeLa; arsenate concentration 1 mM
Method: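 Cellular thermal proteome profiling in HeLa cells treated with 1 mM arsenate for 1 h (DMSO pretreatment), heated to ten temperatures (37-66.3 °C). Soluble protein was quantified by TMT mass spectrometry relative to DMSO controls; the thermal stability score was transformed to a z-score; mean of n = 3 experiments.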

[1] = arsenate co-treatment: 1 mM arsenate 1 h
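Further: each temperature applied for 3 min, abundance score taken as mean log2 fold change at the two lowest temperatures, z-score obtained by mean subtraction and division by SD.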

Sequence of UniProt O00443 (O00443 whole entry): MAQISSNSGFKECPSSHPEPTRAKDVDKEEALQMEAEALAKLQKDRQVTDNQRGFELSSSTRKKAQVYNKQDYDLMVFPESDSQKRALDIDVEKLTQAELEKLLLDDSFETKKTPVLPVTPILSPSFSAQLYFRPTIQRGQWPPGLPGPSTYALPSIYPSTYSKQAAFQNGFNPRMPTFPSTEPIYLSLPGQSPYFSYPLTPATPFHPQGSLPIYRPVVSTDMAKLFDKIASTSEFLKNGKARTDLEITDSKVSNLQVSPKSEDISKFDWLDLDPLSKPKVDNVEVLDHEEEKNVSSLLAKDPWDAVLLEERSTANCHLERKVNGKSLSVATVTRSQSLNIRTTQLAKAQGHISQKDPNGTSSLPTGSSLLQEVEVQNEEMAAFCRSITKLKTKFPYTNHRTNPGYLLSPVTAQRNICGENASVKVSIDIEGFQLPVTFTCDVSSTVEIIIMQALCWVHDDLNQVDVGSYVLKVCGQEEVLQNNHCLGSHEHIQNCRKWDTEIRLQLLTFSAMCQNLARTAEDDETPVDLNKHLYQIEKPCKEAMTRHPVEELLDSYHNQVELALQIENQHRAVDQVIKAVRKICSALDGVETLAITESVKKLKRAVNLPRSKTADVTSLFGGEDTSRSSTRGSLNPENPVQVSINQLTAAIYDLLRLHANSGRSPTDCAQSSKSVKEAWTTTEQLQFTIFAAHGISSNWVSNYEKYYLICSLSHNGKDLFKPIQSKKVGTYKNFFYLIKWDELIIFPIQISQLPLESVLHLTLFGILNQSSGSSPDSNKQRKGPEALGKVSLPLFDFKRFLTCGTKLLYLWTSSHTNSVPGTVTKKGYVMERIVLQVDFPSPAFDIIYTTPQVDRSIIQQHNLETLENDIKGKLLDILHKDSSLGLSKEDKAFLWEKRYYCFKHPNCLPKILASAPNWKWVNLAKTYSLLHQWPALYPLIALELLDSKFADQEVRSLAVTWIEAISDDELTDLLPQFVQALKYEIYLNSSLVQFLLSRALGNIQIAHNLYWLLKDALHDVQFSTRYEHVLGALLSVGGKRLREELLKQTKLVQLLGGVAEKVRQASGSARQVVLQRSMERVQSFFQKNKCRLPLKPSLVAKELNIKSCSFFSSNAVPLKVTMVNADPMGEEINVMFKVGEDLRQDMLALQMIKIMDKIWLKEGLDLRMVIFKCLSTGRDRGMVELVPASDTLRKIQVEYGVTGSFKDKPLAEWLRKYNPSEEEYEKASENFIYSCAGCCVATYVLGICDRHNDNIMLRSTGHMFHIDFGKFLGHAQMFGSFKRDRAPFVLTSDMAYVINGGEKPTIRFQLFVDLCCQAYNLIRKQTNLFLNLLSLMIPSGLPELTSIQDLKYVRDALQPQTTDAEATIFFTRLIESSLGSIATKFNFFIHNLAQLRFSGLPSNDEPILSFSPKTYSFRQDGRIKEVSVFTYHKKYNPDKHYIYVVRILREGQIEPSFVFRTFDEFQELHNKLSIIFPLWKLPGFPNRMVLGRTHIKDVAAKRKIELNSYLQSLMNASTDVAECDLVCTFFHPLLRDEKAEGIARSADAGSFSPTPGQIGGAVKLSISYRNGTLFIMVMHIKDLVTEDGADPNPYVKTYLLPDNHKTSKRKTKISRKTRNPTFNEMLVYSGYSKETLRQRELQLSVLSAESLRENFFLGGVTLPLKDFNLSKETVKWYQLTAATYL
Sequence of UniProt P42336 (P42336 whole entry): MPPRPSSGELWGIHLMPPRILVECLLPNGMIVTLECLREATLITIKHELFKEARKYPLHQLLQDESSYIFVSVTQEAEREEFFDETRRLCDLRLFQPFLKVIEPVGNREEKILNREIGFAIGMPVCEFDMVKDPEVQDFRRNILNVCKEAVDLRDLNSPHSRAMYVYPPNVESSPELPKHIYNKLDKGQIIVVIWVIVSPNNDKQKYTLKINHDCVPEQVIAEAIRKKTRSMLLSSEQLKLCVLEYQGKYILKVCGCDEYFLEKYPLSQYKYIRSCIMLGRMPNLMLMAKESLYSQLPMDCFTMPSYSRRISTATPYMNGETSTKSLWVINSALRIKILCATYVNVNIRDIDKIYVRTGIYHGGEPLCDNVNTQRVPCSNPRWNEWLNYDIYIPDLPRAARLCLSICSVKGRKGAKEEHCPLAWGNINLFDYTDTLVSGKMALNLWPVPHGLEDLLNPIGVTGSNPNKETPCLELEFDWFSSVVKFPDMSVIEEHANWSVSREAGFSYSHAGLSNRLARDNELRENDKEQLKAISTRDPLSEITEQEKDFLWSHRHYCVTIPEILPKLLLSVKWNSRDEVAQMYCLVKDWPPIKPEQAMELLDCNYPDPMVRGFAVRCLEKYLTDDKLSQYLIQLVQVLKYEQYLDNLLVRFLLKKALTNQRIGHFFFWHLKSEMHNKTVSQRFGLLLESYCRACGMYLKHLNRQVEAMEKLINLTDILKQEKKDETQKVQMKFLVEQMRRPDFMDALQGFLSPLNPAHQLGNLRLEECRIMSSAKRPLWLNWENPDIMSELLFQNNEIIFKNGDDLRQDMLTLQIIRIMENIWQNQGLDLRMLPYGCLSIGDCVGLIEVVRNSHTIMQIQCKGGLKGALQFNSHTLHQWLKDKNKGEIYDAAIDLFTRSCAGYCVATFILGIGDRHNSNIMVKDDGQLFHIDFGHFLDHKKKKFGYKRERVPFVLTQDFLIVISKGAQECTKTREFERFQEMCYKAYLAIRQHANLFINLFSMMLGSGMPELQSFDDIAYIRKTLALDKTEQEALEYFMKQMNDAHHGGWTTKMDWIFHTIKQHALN
Sequence of UniProt Q99959 (Q99959 whole entry): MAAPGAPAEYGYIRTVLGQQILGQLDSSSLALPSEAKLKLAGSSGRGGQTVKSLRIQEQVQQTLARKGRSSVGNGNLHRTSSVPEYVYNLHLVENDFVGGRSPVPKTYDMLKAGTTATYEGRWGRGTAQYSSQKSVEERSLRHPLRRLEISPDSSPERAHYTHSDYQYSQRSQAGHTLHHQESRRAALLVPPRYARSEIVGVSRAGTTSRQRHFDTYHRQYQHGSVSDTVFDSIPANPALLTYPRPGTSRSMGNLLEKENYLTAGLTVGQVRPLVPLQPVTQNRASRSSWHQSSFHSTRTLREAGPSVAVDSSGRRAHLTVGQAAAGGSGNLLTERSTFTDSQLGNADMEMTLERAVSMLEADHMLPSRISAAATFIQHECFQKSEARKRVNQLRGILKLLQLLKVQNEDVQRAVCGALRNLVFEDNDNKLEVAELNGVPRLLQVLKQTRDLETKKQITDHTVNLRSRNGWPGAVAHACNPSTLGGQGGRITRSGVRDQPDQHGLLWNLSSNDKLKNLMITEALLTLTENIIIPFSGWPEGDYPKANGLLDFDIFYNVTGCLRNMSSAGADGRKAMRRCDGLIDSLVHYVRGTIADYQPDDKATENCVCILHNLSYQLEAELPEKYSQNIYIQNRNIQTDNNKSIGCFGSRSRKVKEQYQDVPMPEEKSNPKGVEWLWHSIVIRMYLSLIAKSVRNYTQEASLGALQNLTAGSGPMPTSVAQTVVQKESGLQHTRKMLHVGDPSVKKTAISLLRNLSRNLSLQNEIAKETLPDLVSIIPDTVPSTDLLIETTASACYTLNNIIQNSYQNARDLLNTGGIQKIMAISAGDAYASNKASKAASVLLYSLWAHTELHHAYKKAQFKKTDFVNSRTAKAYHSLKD
Sequence of UniProt Q8N2W9 (Q8N2W9 whole entry): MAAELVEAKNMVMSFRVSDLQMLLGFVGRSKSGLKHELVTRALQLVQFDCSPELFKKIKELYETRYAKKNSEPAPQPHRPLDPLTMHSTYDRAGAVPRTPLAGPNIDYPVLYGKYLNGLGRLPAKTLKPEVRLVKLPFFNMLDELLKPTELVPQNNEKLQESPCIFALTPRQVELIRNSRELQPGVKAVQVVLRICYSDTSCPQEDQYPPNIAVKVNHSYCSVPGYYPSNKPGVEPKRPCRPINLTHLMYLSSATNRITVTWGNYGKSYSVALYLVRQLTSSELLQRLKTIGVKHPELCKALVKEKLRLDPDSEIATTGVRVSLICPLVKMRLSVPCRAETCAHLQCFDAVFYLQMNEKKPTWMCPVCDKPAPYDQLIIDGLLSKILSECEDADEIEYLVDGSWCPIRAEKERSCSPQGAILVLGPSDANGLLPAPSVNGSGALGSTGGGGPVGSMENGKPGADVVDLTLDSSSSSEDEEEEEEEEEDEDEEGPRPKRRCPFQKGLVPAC
Sequence of UniProt Q9UKF7 (Q9UKF7 whole entry): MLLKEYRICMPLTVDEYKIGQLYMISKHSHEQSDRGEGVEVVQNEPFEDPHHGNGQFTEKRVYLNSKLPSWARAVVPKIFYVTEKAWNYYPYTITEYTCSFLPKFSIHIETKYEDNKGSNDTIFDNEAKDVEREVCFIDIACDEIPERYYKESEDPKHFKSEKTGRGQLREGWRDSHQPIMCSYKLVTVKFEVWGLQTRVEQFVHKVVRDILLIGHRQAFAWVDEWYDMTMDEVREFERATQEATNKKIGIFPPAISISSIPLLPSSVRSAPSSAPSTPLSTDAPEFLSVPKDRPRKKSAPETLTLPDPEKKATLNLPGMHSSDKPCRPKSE
Sequence of UniProt P78337 (P78337 whole entry): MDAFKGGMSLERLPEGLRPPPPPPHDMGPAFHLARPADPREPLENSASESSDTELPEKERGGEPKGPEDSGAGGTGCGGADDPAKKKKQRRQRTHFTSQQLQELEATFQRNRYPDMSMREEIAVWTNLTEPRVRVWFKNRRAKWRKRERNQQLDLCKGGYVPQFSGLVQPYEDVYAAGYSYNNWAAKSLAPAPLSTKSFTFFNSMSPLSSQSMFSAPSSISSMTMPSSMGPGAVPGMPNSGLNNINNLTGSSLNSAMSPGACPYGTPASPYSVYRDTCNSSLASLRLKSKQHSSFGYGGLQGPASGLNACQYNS
Sequence of UniProt Q13526 (Q13526 whole entry): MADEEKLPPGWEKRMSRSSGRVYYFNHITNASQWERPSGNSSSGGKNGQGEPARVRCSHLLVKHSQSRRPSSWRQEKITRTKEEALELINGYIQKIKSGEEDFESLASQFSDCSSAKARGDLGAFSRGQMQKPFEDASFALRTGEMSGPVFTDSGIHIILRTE

Row | Target | thermal stability z-score (lipoamide; [1]) | thermal stability z-score (lipoamide; arsenate co-treatment: none) | thermal stability z-score (potassium arsenate)
1 | PIAS4 (UniProt Q8N2W9) | 0.144 | 0.2 | 0.136
2 | PIBF1 (UniProt Q8WXW3) | -0.108 | -0.184 | -0.0727
3 | PICALM (UniProt Q13492) | 0.107 | -0.16 | -0.0231
4 | PIEZO1 (UniProt Q92508) | -0.342 | 0.0689 | 0.19
5 | PIGA (UniProt P37287) | 0.843 | 0.283 | 0.147
6 | PIGG (UniProt Q5H8A4) | -0.479 | -0.752 | 0.14
7 | PIGK (UniProt Q92643) | -1.32 | -1.34 | -0.123
8 | PIGN (UniProt O95427) | 0.0724 | -0.0621 | 0.41
9 | PIGO (UniProt Q8TEQ8) | -1.23 | -1.1 | -0.779
10 | PIGS (UniProt Q96S52) | -2.47 | -2.43 | 0.44
11 | PIGT (UniProt Q969N2) | -3.54 | -2.49 | -0.105
12 | PIGU (UniProt Q9H490) | -0.834 | -0.665 | 0.169
13 | PIH1D1 (UniProt Q9NWS0) | 1.07 | 0.114 | 0.538
14 | PIK3C2A (UniProt O00443) | -0.267 | 0.213 | 0.167
15 | PIK3C2B (UniProt O00750) | 0.468 | 0.832 | 0.971
16 | PIK3C3 (UniProt Q8NEB9) | -0.102 | -0.206 | -0.484
17 | PIK3CA (UniProt P42336) | -0.275 | -0.149 | -0.45
18 | PIK3CB (UniProt P42338) | -0.054 | -0.193 | -0.371
19 | PIK3R2 (UniProt O00459) | -0.263 | 0.416 | -0.17
20 | PIK3R3 (UniProt Q92569) | 0.191 | -0.186 | 0.0593
21 | PIK3R4 (UniProt Q99570) | -0.524 | -0.155 | 0.184
22 | PIKFYVE (UniProt Q9Y2I7) | 0.00547 | -0.0522 | -0.189
23 | PIN1 (UniProt Q13526) | 0.355 | 0.305 | 0.757
24 | PIN4 (UniProt Q9Y237) | 0.199 | -0.0862 | -0.422
25 | PINX1 (UniProt Q96BK5) | -0.717 | -0.225 | -2.03
26 | PIP4K2A (UniProt P48426) | 0.195 | 0.103 | -0.102
27 | PIP4K2B (UniProt P78356) | 0.0141 | 0.0907 | 0.0439
28 | PIP4K2C (UniProt Q8TBX8) | 0.0507 | 0.12 | 1.78

Row | Target | thermal stability z-score (lipoamide; [1]) | thermal stability z-score (lipoamide; arsenate co-treatment: none) | thermal stability z-score (potassium arsenate)
29 | PIP5K1A (UniProt Q99755) | -0.948 | -0.813 | 0.951
30 | PIR (UniProt O00625) | 3.16 | 2.76 | -1.25
31 | PISD (UniProt Q9UG56) | 0.488 | 0.414 | 0.0415
32 | PITHD1 (UniProt Q9GZP4) | -0.537 | 0.337 | 0.158
33 | PITPNA (UniProt Q00169) | 0.386 | 0.434 | -0.787
34 | PITPNB (UniProt P48739) | -0.0644 | 0.129 | -1.18
35 | PITPNC1 (UniProt Q9UKF7) | -0.545 | -0.37 | -0.255
36 | PITRM1 (UniProt Q5JRX3) | 0.579 | 0.327 | 2.58
37 | PITX1 (UniProt P78337) | 0.0195 | -0.0855 | 0.027
38 | PJA2 (UniProt O43164) | -0.202 | -0.163 | -3.43
39 | PKD2 (UniProt Q13563) | 0.277 | 0.13 | 0.16
40 | PKM (UniProt P14618) | 0.109 | 0.0166 | -0.166
41 | PKMYT1 (UniProt Q99640) | -0.143 | -0.144 | -0.0435
42 | PKN1 (UniProt Q16512) | -0.436 | -0.52 | -0.513
43 | PKN2 (UniProt Q16513) | 0.0683 | 0.467 | 0.144
44 | PKN3 (UniProt Q6P5Z2) | -0.237 | 0.334 | 0.231
45 | PKP2 (UniProt Q99959) | 0.0483 | -0.112 | -0.371
46 | PKP3 (UniProt Q9Y446) | -0.116 | 0.603 | 0.191
47 | PLA2G4A (UniProt P47712) | -0.308 | -0.439 | -0.294
48 | PLA2G12A (UniProt Q9BZM1) | -0.0117 | -0.134 | -0.111
49 | PLA2G15 (UniProt Q8NCC3) | -0.718 | -0.487 | 0.38
50 | PLAA (UniProt Q9Y263) | 0.0745 | -0.41 | -0.0864
51 | PLAUR (UniProt Q03405) | -1.4 | -2.11 | -0.768
52 | PLBD2 (UniProt Q8NHP8) | -0.0663 | 0.0581 | 0.464
53 | PLCB3 (UniProt Q01970) | -0.0239 | -0.358 | -0.557
54 | PLCD3 (UniProt Q8N3E9) | 0.235 | 0.151 | 0.0088
55 | PLCG1 (UniProt P19174) | 0.538 | 0.247 | 0.623
